Peptide text beside a SMILES is read from it. * marks the point of attachment. Cbz = O=C(OCc1ccccc1)*; CH2F = FC*
Tests used:
[1] = tested on: Mel-hEGFR-eYFP in Sf21 insect cell lysates; assay: Stability of de novo synthesized Mel-hEGFR-eYFP in batch mode (SDS-PAGE, autoradiography); type: biochemical, Spodoptera frugiperda; conditions: inhibitor 30 μM
Source text: The positive influence of the caspase inhibitor on the stability of cell-free synthesized proteins is shown here on the basis of the expression of the EGF receptor, the protein being a human, high molecular weight transmembrane protein (Epidermal Growth Factor Receptor) with intrinsic tyrosine kinase activity. The coding sequence of the EGF receptor was fused N-terminally with a melittin signal sequence (Mel) and C-terminally with yellow fluorescent protein (eYFP) and cloned into the vector pIX3.0 (Qiagen). The model protein is denoted below as Mel-hEGFR-eYFP (=163 kDa). The melittin signal sequence enables translocation of the membrane protein into the microsomes of the eukaryotic cell extract and subsequently embedding into the membrane of the microsomes. Mel-hEGFR-eYFP has nine potential N-glycosylation sites and therefore, due to the translocation of the target protein, N-glycosylation of the target protein is also enabled in the cell-free system. […] The translation reaction was carried out in the absence and the presence of a caspase inhibitor (Z-VAD-FMK, Promega, 30 μM) and a protease inhibitor mixture (“Complete Protease Inhibitor Cocktail”, Roche), respectively, and stopped at the indicated incubation times (1.5 h, 5 h and 24 h) by freezing the translation reaction in liquid nitrogen. […]

[2] = tested on: cell-free eukaryotic translation system on the basis of a cell extract from Spodoptera frugiperda (Sf21) insect cells; assay: Cell-free synthesis of SII-eYFP, protein yield by 14C-leucine incorporation (hot TCA precipitation, scintillation); type: biochemical; conditions: −V, +CI
Protocol: The influence of the caspase inhibitor on the maximum achievable protein yield was initially investigated on the basis of the expression of the cytosolic protein SII-eYFP. This model protein is the enhanced yellow fluorescent protein (eYFP) which was fused at the N-terminus with an affinity tag (Strep-Tag, SII-Tag) and was present in the vector pIX3.0 (Qiagen). The expression of the model protein was analyzed in the batch system and the dialysis system (50 μl reaction chamber; 1000 μl feeding chamber; cut-off of the membrane=10 kDa) over a period of 48 h. The translation mixtures were each incubated in the batch system and the dialysis system with (+) and without (−) insect cell vesicles (V) and with (+) and without (−) caspase inhibitor (CI) (at 27° C. and 600 rpm). The protein synthesis was carried out in the presence of the radioactively labeled amino acid ^14C-leucine in order to be able to determine the quantity of de novo synthesized target protein by means of hot TCA precipitation and scintillation measurement. The translation reactions were interrupted at particular time points (0 h, 2 h, 4 h, 24 h and 48 h) and analyzed as follows: 5 μl of the mixture was precipitated in hot TCA or ice-cold acetone in each case. A further 5 μl was resuspended in 25 μl PBS. The remaining sample volume was separated by means of a centrifuging step into the supernatant fluid (SN) and the vesicular fraction (VF). Aliquots of 5 μl of these fractions were diluted in 25 μl PBS each. Following the TCA precipitation, the samples were separated from free radioactive amino acids via a vacuum-driven filtration system and underwent a scintillation measurement. After drying, the proteins precipitated in acetone were collected in a reducing sample buffer and separated electrophoretically.

[3] = tested on: cell-free eukaryotic translation system on the basis of a cell extract from Spodoptera frugiperda (Sf21) insect cells; assay: Cell-free expression of Mel-Hb-EGF-eYFP, protein quantity in translation mixture and vesicular fraction; type: biochemical
Protocol: The three proteins were each expressed in the batch and dialysis systems without (−) and with (+) the addition of the caspase inhibitor (CI) in the presence of ^14C-leucine for 48 h (27° C.; 600 rpm, Eppendorf Thermomixer Comfort) and analyzed as in example 1. […] The expression of each of the three membrane proteins (ETB, 49.3 kDa; Hb-EGF, 51 kDa; bacteriorhodopsin, 26.9 kDa) was able to be increased in the dialysis system (comparison of the dialysis batches +CI and −CI) with the addition of the caspase inhibitor by approximately 100% (FIG. 2).
Here, the intention was to investigate whether the increase in the total protein quantity is also associated with an increase in the quantity of membrane protein translocated and integrated into the lipid layer of the vesicles. For this purpose, the translation mixtures of Mel-Hg-EGF-eYFP were separated by means of a centrifuging step into the supernatant fluid (SN) and the vesicular fraction (VF). Aliquots (5 μl) of these samples were used for determining the quantity of de novo synthesized protein or were investigated with regard to their fluorescence properties (FIG. 4).
FIG. 4A: The synthesis of Mel-Hb-EGF-eYFP was carried out in the batch (left) and dialysis system (right) in the absence (−) and in the presence (+) of DTT with the addition of the caspase inhibitor (Z-VAD-FMK) over 48 h at 27° C. and 600 rpm. Following the synthesis, the mixtures were separated by means of a centrifuging step into the supernatant fluid (SN) and the vesicular fraction (VF). For analysis of the fluorescence intensity of the samples, aliquots of the fractions (5 μl) were each diluted in 25 μl PBS and 25 μl of this mixture was pipetted to each cavity of the Ibidi slide and measured. Excitation of the samples was carried out at 488 nm with a phosphorimager (Typhoon TRIO+ Imager, GE Healthcare) and the emission measured at 526 nm.

## COC(=O)C[C@H](NC(=O)[C@H](C)NC(=O)[C@@H](NC(=O)OCc1ccccc1)C(C)C)C(=O)CF [Z-VAD-FMK, benzyloxycarbonyl-Val-Ala-Asp-[O-methyl]-fluoromethylketone] (Cbz-Val-Ala-Asp(OMe)-CH2F)
[1]; after 24 h incubation time
  Mel-hEGFR-eYFP integrity in the autoradiograph: detectable in an intact form
[1]; compared with no inhibitor, 5 h
  proteolytic decomposition of Mel-hEGFR-eYFP (autoradiograph): reduced signs of a proteolytic decomposition
[2]; batch system after 48 h
  protein yield of SII-eYFP: 17.3 µg/mL
[2]; dialysis system after 48 h
  protein yield of SII-eYFP: 90.8 µg/mL
[2]; dialysis system vs batch system, 48 h
  increase of the maximum protein yield of SII-eYFP: approximately 400%
[3]; batch 48 h +CI
  total protein quantity of Mel-Hb-EGF-eYFP: 12.1 µg/mL
[3]; batch 48 h −DTT +CI
  Mel-Hb-EGF-eYFP in the vesicular fraction of the lysate: 6.5 µg/mL
[3]; dialysis 48 h +CI
  total protein quantity of Mel-Hb-EGF-eYFP: 47.6 µg/mL
[3]; dialysis 48 h +CI vs batch 48 h +CI
  increase in total protein quantity of Mel-Hb-EGF-eYFP: 300%
[3]; dialysis 48 h +CI vs dialysis 48 h −CI
  increase in total protein quantity of Mel-Hb-EGF-eYFP: 130%
[3]; dialysis 48 h −DTT +CI
  Mel-Hb-EGF-eYFP in the vesicular fraction of the lysate: 31.4 µg/mL
